Test results taken from patent publication US10517889B2, “Modulators of SMAD7 expression” (Ionis Pharmaceuticals, Inc., priority 2017, dated 2019).
Strand notation (5' to 3'): a small letter for the sugar, then the base; units joined by * are phosphorothioate-linked, units joined directly phosphodiester-linked; [ ] holds rarer units or linkages, { } end groups; capitals alone tell only the bases. k = constrained ethyl (cEt); [5mC] = 5-methylcytosine; d = 2'-deoxy (DNA)

test system: human SMAD7 mRNA; test: Antisense inhibition of human SMAD7 mRNA expression in Hep3B cells by 3-10-3 cEt gapmers, 10,000 nM, electroporation (Example 2); assay type: cell-based; details: Hep3B cells, 10,000 nM antisense oligonucleotide, electroporation, approximately 24 hours, RT-PCR primer probe set RTS5062, relative to untreated control cells
Method: Antisense oligonucleotides were designed to target human SMAD7 mRNA and were tested for their effects on SMAD7 mRNA expression in vitro. The antisense oligonucleotides were tested in a series of experiments that had similar culture conditions, as described below. ION 771576, described in the studies above and which is a 5-10-5 MOE gapmer, was also included in these assays. Cultured Hep3B cells at a density of 20,000 cells per well were transfected using electroporation with 10,000 nM antisense oligonucleotide. After a treatment period of approximately 24 hours, RNA was isolated from the cells and SMAD7 mRNA levels were measured by quantitative real-time PCR. Primer probe set RTS5062 was used to measure human SMAD7 mRNA levels. SMAD7 mRNA levels were adjusted according to total RNA content, as measured by RIBOGREEN®. Results are presented as percent inhibition of SMAD7 mRNA expression, relative to untreated control cells.
The newly designed chimeric antisense oligonucleotides in the Tables below were designed as 3-10-3 cEt gapmers. The gapmers are 16 nucleosides in length, wherein the central gap segment comprises often 2′-deoxynucleosides and is flanked by wing segments on the 5′ direction and the 3′ direction comprising three nucleosides each. Each nucleoside in the 5′ wing segment and each nucleoside in the 3′ wing segment has a cEt sugar modification. The internucleoside linkages throughout each gapmer are phosphorothioate (P═S) linkages. All cytosine residues throughout each gapmer are 5-methylcytosines.
“Start site” indicates the 5′-most nucleoside to which the gapmer is targeted in the human gene sequence. “Stop site” indicates the 3′-most nucleoside to which the gapmer is targeted human gene sequence. […] Some of the oligonucleotides presented were complementary to SMAD7 mRNA sequences RefSeqNo. NM_001190821.1 (designated herein as SEQ ID NO: 3) or RefSeqNo. NM_001190822.1 (designated herein as SEQ ID NO: 4), and are presented in a separate table shown below.

Question: Which “% Inhibition” value does the source give for “790507 (kA*kA*kG*dA*dA*dG*dT*dT*dG*dG*dG*dA*dA*kT*k[5mC]*kT; antisense) [compound 790507]” here?
Answer: 0%

same assay, conditions: Hep3B cells, electroporation with 10,000 nM antisense oligonucleotide, approximately 24 hours, SMAD7 mRNA by RT-PCR (RTS5062), relative to untreated control cells

Question: Which “% Inhibition” value does the source give for “772889 (k[5mC]*kT*k[5mC]*d[5mC]*dA*dT*dT*d[5mC]*dA*dT*dA*dA*dT*kA*kT*kT; antisense) [compound 772889]” here?
Answer: 7%

Question: Which “% Inhibition” value does the source give for “790458 (k[5mC]*kG*k[5mC]*d[5mC]*dA*dG*dT*d[5mC]*dT*d[5mC]*d[5mC]*d[5mC]*dG*kG*kA*kG; antisense) [compound 790458]” here?
Answer: 0%

Question: How did the “% Inhibition” value turn out when “790460 (kA*kG*kG*dA*dG*d[5mC]*dG*dG*d[5mC]*dG*dG*d[5mC]*dG*kG*k[5mC]*k[5mC]; antisense) [compound 790460]” was run?
Answer: 58%

Question: Which “% Inhibition” value does the source give for “790464 (kA*kG*k[5mC]*dG*dA*dA*d[5mC]*dA*dT*dG*dA*d[5mC]*d[5mC]*kT*k[5mC]*k[5mC]; antisense) [compound 790464]” here?
Answer: 58%

Question: With “790465 (kA*kA*kG*dG*dA*dG*d[5mC]*dG*dA*dA*d[5mC]*dA*dT*kG*kA*k[5mC]; antisense) [compound 790465]” as the substance, how does the “% Inhibition” value read?
Answer: 54%

Question: With “790479 (kG*kG*k[5mC]*dA*dG*d[5mC]*dA*dG*dG*dA*dG*dG*d[5mC]*kA*k[5mC]*kG; antisense) [compound 790479]” as the substance, how does the “% Inhibition” value read?
Answer: 43%

Question: “790485 (k[5mC]*kA*k[5mC]*d[5mC]*dT*dG*dA*dA*d[5mC]*dA*d[5mC]*dT*dT*kT*kG*k[5mC]; antisense) [compound 790485]” was tested. Which “% Inhibition” value did it give?
Answer: 26%

Question: With “790492 (kT*k[5mC]*k[5mC]*d[5mC]*dG*dT*dA*dA*dG*dA*dT*dT*d[5mC]*kA*k[5mC]*kA; antisense) [compound 790492]” as the substance, how does the “% Inhibition” value read?
Answer: 38%

Question: With “790493 (kG*kT*kT*dG*dA*dT*d[5mC]*dT*dT*d[5mC]*d[5mC]*d[5mC]*dG*kT*kA*kA; antisense) [compound 790493]” as the substance, how does the “% Inhibition” value read?
Answer: 0%

Question: How did the “% Inhibition” value turn out when “790496 (kG*k[5mC]*kA*dG*dA*dG*dT*d[5mC]*dG*dG*d[5mC]*dT*dA*kA*kG*kG; antisense) [compound 790496]” was run?
Answer: 42%

Question: “790497 (kG*kT*kT*d[5mC]*dG*d[5mC]*dA*dG*dA*dG*dT*d[5mC]*dG*kG*k[5mC]*kT; antisense) [compound 790497]” was tested. Which “% Inhibition” value did it give?
Answer: 23%

same assay, conditions: Hep3B cells, electroporation with 10,000 nM antisense oligonucleotide, approximately 24 hours, primer probe set RTS5062, relative to untreated control cells

Question: How did the “% Inhibition” value turn out when “772702 (k[5mC]*kG*kT*d[5mC]*dT*dT*dT*dA*dT*dA*dT*dT*dT*kA*k[5mC]*kA; antisense) [compound 772702]” was run?
Answer: 23%

Question: How did the “% inhibition of SMAD7 mRNA expression” value turn out when “772708 (kA*kA*kA*dG*dT*dG*d[5mC]*dA*dT*d[5mC]*dT*dT*dT*kT*k[5mC]*kT; antisense) [compound 772708]” was run?
Answer: 0%

Question: Which “% inhibition of SMAD7 mRNA expression” value does the source give for “772709 (kT*kA*kA*dA*dG*d[5mC]*dA*dA*dA*dG*dT*dG*d[5mC]*kA*kT*k[5mC]; antisense) [compound 772709]” here?
Answer: 0%

Question: For “772712 (kA*k[5mC]*k[5mC]*d[5mC]*dA*dT*dA*dG*dA*dA*dA*dA*dA*kA*kA*k[5mC]; antisense) [compound 772712]”, which “% inhibition of SMAD7 mRNA expression” value is on record?
Answer: 0%

Question: “772717 (kA*k[5mC]*kT*d[5mC]*d[5mC]*dT*dT*dT*dA*dG*dA*dA*dA*kA*kA*k[5mC]; antisense) [compound 772717]” was tested. Which “% inhibition of SMAD7 mRNA expression” value did it give?
Answer: 28%

Question: “790461 (k[5mC]*k[5mC]*kG*dG*dG*d[5mC]*dA*dG*dG*dA*dG*d[5mC]*dG*kG*k[5mC]*kG; antisense) [compound 790461]” was tested. Which “% inhibition of SMAD7 mRNA expression” value did it give?
Answer: 42%

Question: With “790462 (kG*k[5mC]*kG*d[5mC]*dA*dG*dG*d[5mC]*dG*dA*d[5mC]*dA*dG*k[5mC]*kA*kG; antisense) [compound 790462]” as the substance, how does the “% inhibition of SMAD7 mRNA expression” value read?
Answer: 43%

Question: Which “% inhibition of SMAD7 mRNA expression” value does the source give for “790468 (kG*k[5mC]*kG*dA*dG*dG*dA*dG*dA*dA*dA*dA*dG*kT*k[5mC]*kG; antisense) [compound 790468]” here?
Answer: 0%

Question: Which “% inhibition of SMAD7 mRNA expression” value does the source give for “790489 (k[5mC]*kT*k[5mC]*dT*dT*dG*dA*d[5mC]*dT*dT*d[5mC]*d[5mC]*dG*kA*kG*kG; antisense) [compound 790489]” here?
Answer: 0%

same assay, conditions: Hep3B cells, electroporation, 10,000 nM antisense oligonucleotide, approximately 24 hours, RTS5062, relative to untreated control cells

Question: How did the “% inhibition of SMAD7 mRNA expression” value turn out when “772786 (kG*kA*k[5mC]*d[5mC]*dA*d[5mC]*dA*dG*d[5mC]*dA*d[5mC]*d[5mC]*dT*kT*kG*kT; antisense) [compound 772786]” was run?
Answer: 19%

Question: For “772801 (kG*kA*k[5mC]*dA*dA*dA*d[5mC]*d[5mC]*dT*dT*d[5mC]*d[5mC]*dG*kA*kA*kA; antisense) [compound 772801]”, which “% inhibition of SMAD7 mRNA expression” value is on record?
Answer: 34%

Question: “772813 (kA*kA*kG*dG*dG*d[5mC]*dG*d[5mC]*dA*dG*dG*dA*dA*kA*kG*kG; antisense) [compound 772813]” was tested. Which “% inhibition of SMAD7 mRNA expression” value did it give?
Answer: 43%

same assay, conditions: SMAD7 mRNA, Hep3B cells, 10,000 nM antisense oligonucleotide, electroporation, approximately 24 hours, primer probe set RTS5062, relative to untreated control cells

Question: Which “% Inhibition” value does the source give for “772711 (kA*kA*kA*d[5mC]*dA*d[5mC]*d[5mC]*dA*dA*dT*d[5mC]*dT*dT*kG*kT*kG; antisense) [compound 772711]” here?
Answer: 0%

Question: With “772713 (kA*kT*kA*dA*d[5mC]*dA*d[5mC]*d[5mC]*d[5mC]*dA*dT*dA*dG*kA*kA*kA; antisense) [compound 772713]” as the substance, how does the “% Inhibition” value read?
Answer: 24%

Question: How did the “% Inhibition” value turn out when “772714 (kA*kG*kG*dT*dG*dA*dT*dA*dA*d[5mC]*dA*d[5mC]*d[5mC]*k[5mC]*kA*kT; antisense) [compound 772714]” was run?
Answer: 0%

Question: With “772715 (kA*kG*k[5mC]*dT*dA*dG*dG*dT*dG*dA*dT*dA*dA*k[5mC]*kA*k[5mC]; antisense) [compound 772715]” as the substance, how does the “% Inhibition” value read?
Answer: 0%

Question: “772733 (kG*kG*kT*dG*dA*dT*dT*dG*d[5mC]*d[5mC]*dT*dT*dG*kA*kT*kA; antisense) [compound 772733]” was tested. Which “% Inhibition” value did it give?
Answer: 39%

Question: “772734 (kA*kG*kG*d[5mC]*dA*dG*dG*dG*d[5mC]*d[5mC]*dG*d[5mC]*dG*kA*kG*kG; antisense) [compound 772734]” was tested. Which “% Inhibition” value did it give?
Answer: 16%

Question: With “772735 (kA*kA*k[5mC]*dT*dG*dT*dT*dT*dG*dT*d[5mC]*dT*dT*kA*kG*k[5mC]; antisense) [compound 772735]” as the substance, how does the “% Inhibition” value read?
Answer: 52%

Question: How did the “% Inhibition” value turn out when “772738 (kA*k[5mC]*k[5mC]*dA*dG*dT*dT*dG*dG*dT*dT*dT*dG*kA*kG*kA; antisense) [compound 772738]” was run?
Answer: 16%

Question: Which “% Inhibition” value does the source give for “772739 (kT*kA*k[5mC]*dT*d[5mC]*dA*d[5mC]*d[5mC]*dA*dG*dT*dT*dG*kG*kT*kT; antisense) [compound 772739]” here?
Answer: 0%

Question: “772762 (kA*kT*kT*dT*dT*dG*d[5mC]*dT*dA*d[5mC]*d[5mC]*dT*dA*kA*kT*kG; antisense) [compound 772762]” was tested. Which “% Inhibition” value did it give?
Answer: 11%

Question: How did the “% Inhibition” value turn out when “772765 (kG*kA*kT*dT*dG*dG*d[5mC]*dA*dG*dG*dT*dT*dA*kA*kT*k[5mC]; antisense) [compound 772765]” was run?
Answer: 35%

Question: How did the “% Inhibition” value turn out when “772808 (k[5mC]*k[5mC]*k[5mC]*d[5mC]*dA*dT*dT*d[5mC]*dA*dT*dT*dA*dA*kG*k[5mC]*k[5mC]; antisense) [compound 772808]” was run?
Answer: 34%

Question: Which “% Inhibition” value does the source give for “772809 (k[5mC]*k[5mC]*kT*dA*dA*dA*d[5mC]*dT*dG*dA*dG*d[5mC]*d[5mC]*k[5mC]*k[5mC]*kA; antisense) [compound 772809]” here?
Answer: 48%

Question: “772929 (k[5mC]*kG*kG*dA*dA*dG*dT*d[5mC]*dT*dT*dG*dT*dA*kT*kT*kT; antisense) [compound 772929]” was tested. Which “% Inhibition” value did it give?
Answer: 37%

Question: Which “% Inhibition” value does the source give for “790463 (kA*kT*kG*dA*dA*dG*dA*dA*dG*dT*d[5mC]*dG*dG*kG*k[5mC]*kG; antisense) [compound 790463]” here?
Answer: 53%

Question: With “790469 (k[5mC]*kG*kG*dA*d[5mC]*dG*dA*dG*d[5mC]*dG*d[5mC]*dA*dG*kA*kT*k[5mC]; antisense) [compound 790469]” as the substance, how does the “% Inhibition” value read?
Answer: 41%

Question: “790471 (k[5mC]*kG*k[5mC]*d[5mC]*dG*dG*dG*d[5mC]*dG*d[5mC]*dA*d[5mC]*dG*kG*k[5mC]*kT; antisense) [compound 790471]” was tested. Which “% Inhibition” value did it give?
Answer: 4%

Question: “790484 (kG*kA*kA*d[5mC]*dA*d[5mC]*dT*dT*dT*dG*d[5mC]*dA*d[5mC]*kA*kG*k[5mC]; antisense) [compound 790484]” was tested. Which “% Inhibition” value did it give?
Answer: 62%

Question: For “790486 (kT*kG*k[5mC]*d[5mC]*dT*dG*dA*dG*dA*dT*d[5mC]*d[5mC]*dG*kG*k[5mC]*k[5mC]; antisense) [compound 790486]”, which “% Inhibition” value is on record?
Answer: 23%

Question: Which “% Inhibition” value does the source give for “790491 (kG*kT*kA*dA*dG*dA*dT*dT*d[5mC]*dA*d[5mC]*dA*dG*k[5mC]*kA*kA; antisense) [compound 790491]” here?
Answer: 56%

Question: For “790498 (k[5mC]*kT*k[5mC]*dT*dA*dG*dT*dT*d[5mC]*dG*d[5mC]*dA*dG*kA*kG*kT; antisense) [compound 790498]”, which “% Inhibition” value is on record?
Answer: 11%
